The source of these data is paper PMC7211203 (European Journal of Drug Metabolism and Pharmacokinetics, 2020).

The structures appear in SMILES notation. Marks after values point to notes of the source that are not given here. Where only a bound is given, the exact number is not on record here.

Data set [1] has as its target T1, CYP3A4 (Homo sapiens, UniProt P08684). The settings on record: 18 patients with solid tumors; cited from earlier work.
A further data set has as its system CYP3A. The conditions noted are these: open-label, fixed-sequence study in 16 cancer patients; cited from earlier work.
For data set [2], the target named is T1, CYP3A4. The settings on record: 18 patients with solid tumors, before/after design; cited from earlier work.
For data set [3] the following is noted: cited from earlier work.
Data set [4] can be described thus: Safety: adverse events in patients with advanced solid tumors. Format: in vivo, human.
Data set [5] relates to CYP3A4. The settings on record: ref Eisai, data on file; cited from earlier work.
For data set [6] the following is noted: phase 1 study; cited from earlier work.
Data set [7] deals with T1, CYP3A4. The settings on record: cited from earlier work.
For data set [8] the following is noted: cited from earlier work. The source holds these as a separate data set.
Where [9] appears, read: safety analysis set n = 30, treatment phase.

T1 sequence (P08684 whole entry): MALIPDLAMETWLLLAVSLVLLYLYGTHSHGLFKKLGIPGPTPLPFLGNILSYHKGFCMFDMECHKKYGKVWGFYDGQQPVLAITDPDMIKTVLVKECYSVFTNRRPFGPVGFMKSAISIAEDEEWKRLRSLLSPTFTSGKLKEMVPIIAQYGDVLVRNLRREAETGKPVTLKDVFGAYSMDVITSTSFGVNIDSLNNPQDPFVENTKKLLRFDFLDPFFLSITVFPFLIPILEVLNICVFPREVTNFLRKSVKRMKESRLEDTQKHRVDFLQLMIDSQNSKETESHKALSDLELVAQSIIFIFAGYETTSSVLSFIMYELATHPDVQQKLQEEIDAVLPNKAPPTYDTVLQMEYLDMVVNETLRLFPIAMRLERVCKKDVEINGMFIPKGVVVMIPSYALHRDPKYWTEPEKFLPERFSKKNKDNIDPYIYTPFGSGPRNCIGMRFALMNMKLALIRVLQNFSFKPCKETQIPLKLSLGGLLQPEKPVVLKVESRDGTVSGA

On to `COC[C@H](NC(=O)c1cnc(C)s1)C(=O)N[C@@H](COC)C(=O)N[C@@H](Cc1ccccc1)C(=O)[C@@]1(C)CO1` [Oprozomib, oprozomib], for which the “CYP3A4 inhibition in patients (midazolam)” value at CYP3A4 [1] is listed as “clinically relevant inhibition was not seen”.

On to `CO[C@H]1C[C@@H]2CC[C@@H](C)[C@@](O)(O2)C(=O)C(=O)N2CCCC[C@H]2C(=O)O[C@H]([C@H](C)C[C@@H]2CC[C@@H](OP(C)(C)=O)[C@H](OC)C2)CC(=O)[C@H](C)/C=C(\C)[C@@H](O)[C@@H](OC)C(=O)[C@H](C)C[C@H](C)/C=C/C=C/C=C/1C` [Ridaforolimus, ridaforolimus], for which, in the data set on CYP3A, the “Impact on CYP3A (midazolam probe)” value was “minimal inhibitory impact on CYP3A”.

For `CC(C)C[C@H](NC(=O)[C@H](CCc1ccccc1)NC(=O)CN1CCOCC1)C(=O)N[C@@H](Cc1ccccc1)C(=O)N[C@@H](CC(C)C)C(=O)[C@@]1(C)CO1` [carfilzomib], the “Effect on the pharmacokinetics of midazolam” value at CYP3A4 [2] is recorded as “No clinically significant effects”.

`COc1cc2nccc(Oc3ccc(NC(=O)NC4CC4)c(Cl)c3)c2cc1C(N)=O` [lenvatinib]: in data set [3] (after dosing), the tmax was 1 to 4 h. The half-life in data set [3] is 28 h. Moreover, the “Grade of treatment-related SAEs” value in data set [4] (all treatment-related SAEs) was no more than 3 grade. Also, the “New AEs in the extension phase” value in data set [4] (extension phase (Eisai, data on file)) was “No new AEs”. The “Patients who died during the treatment phase” value in data set [4] (grade 5 TEAE (intestinal obstruction), related to underlying colon cancer) is “One”. In data set [4] (lenvatinib 24 mg once daily, patients with advanced solid tumors), the Tolerability entry was “generally well tolerated”. In addition, in [4] (safety analysis set n = 30), the “Abdominal pain upper: SAEs” value was 1 (3.3) n (%), the “Abdominal pain: SAEs” value was 2 (6.7) n (%), the “Abdominal pain: TEAEs” value is 3 (10.0) n (%) and the “Asthenia: SAEs” value is recorded as 1 (3.3) n (%). In [4] (safety analysis set n = 30), the “Asthenia: TEAEs” value is recorded as 3 (10.0) n (%), the “Asthenia: treatment-related AEs” value is on record as 2 (6.7) n (%), the “Bradycardia: SAEs” value is 1 (3.3) n (%) and the “Cardiac disorders: SAEs” value is on record as 2 (6.7) n (%). Further, in data set [4] (safety analysis set n = 30), the “Cerebral hemorrhage: SAEs” value is listed as 1 (3.3) n (%), the “Cough: TEAEs” value was 2 (6.7) n (%), the “Diarrhea: TEAEs” value is on record as 7 (23.3) n (%) and the “Diarrhea: treatment-related AEs” value was 3 (10.0) n (%). Further, in data set [4] (safety analysis set n = 30), the “Dysphonia: TEAEs” value is given as 2 (6.7) n (%), the “Dyspnea: SAEs” value is reported as 1 (3.3) n (%), the “Dyspnea: TEAEs” value was 2 (6.7) n (%) and the “Fatigue: TEAEs” value is on record as 8 (26.7) n (%). For the same compound, in data set [4] (safety analysis set n = 30), the “Fatigue: treatment-related AEs” value is given as 5 (16.7) n (%), the “Gastrointestinal disorders: SAEs” value is listed as 4 (13.3) n (%), the “Gastrointestinal disorders: TEAEs” value is on record as 12 (40.0) n (%) and the “Gastrointestinal disorders: treatment-related AEs” value is on record as 6 (20.0) n (%). In addition, in data set [4] (safety analysis set n = 30), the “General disorders: SAEs” value is given as 1 (3.3) n (%), the “General disorders: TEAEs” value is 11 (36.7) n (%), the “General disorders: treatment-related AEs” value is on record as 7 (23.3) n (%) and the “Headache: TEAEs” value is 3 (10.0) n (%). For the same compound, in [4] (safety analysis set n = 30), the “Headache: treatment-related AEs” value is 2 (6.7) n (%), the “Hypertension: SAEs” value is 3 (10.0) n (%), the “Hypertension: TEAEs” value is 7 (23.3) n (%) and the “Hypertension: treatment-related AEs” value was 6 (20.0) n (%). Besides, in [4] (safety analysis set n = 30), the “Nausea: TEAEs” value is given as 4 (13.3) n (%), the “Nausea: treatment-related AEs” value is on record as 2 (6.7) n (%), the “Nervous system disorders: SAEs” value is reported as 1 (3.3) n (%) and the “Nervous system disorders: TEAEs” value is recorded as 5 (16.7) n (%). Moreover, in [4] (safety analysis set n = 30), the “Nervous system disorders: treatment-related AEs” value is 2 (6.7) n (%), the “Patient deaths from TEAEs: SAEs” value was 1 (3.33) n (%), the “Pyrexia: SAEs” value is given as 1 (3.3) n (%) and the “Rectal hemorrhage: SAEs” value is listed as 1 (3.3) n (%). Moreover, in [4] (safety analysis set n = 30), the “Respiratory, thoracic, and mediastinal disorders: SAEs” value was 1 (3.3) n (%); the “Respiratory, thoracic, and mediastinal disorders: TEAEs” value is given as 8 (26.7) n (%); the “Stress cardiomyopathy: SAEs” value is given as 1 (3.3) n (%); the “Vascular disorders: SAEs” value was 3 (10.0) n (%). Moreover, in data set [4] (safety analysis set n = 30), the “Vascular disorders: TEAEs” value is on record as 7 (23.3) n (%), the “Vascular disorders: treatment-related AEs” value was 6 (20.0) n (%), the “Vomiting: TEAEs” value is listed as 2 (6.7) n (%) and the “Vomiting: treatment-related AEs” value was 2 (6.7) n (%). In [4] (setting [9]), the “Patients with any TEAEs: SAEs” value is 10 (33.3) n (%), the “Patients with any TEAEs: TEAEs” value is reported as 26 (86.7) n (%) and the “Patients with any TEAEs: treatment-related AEs” value is listed as 17 (56.7) n (%). Further, in data set [4] (safety analysis set n = 30, this SAE resulted in patient death), the “Intestinal obstruction: SAEs” value is listed as 1 (3.3)^c n (%). Besides, in data set [4] (treatment phase, n = 30), the “Patients who discontinued treatment due to a TEAE” value is 6.7%, the “Patients with SAEs considered treatment related” value is recorded as “Four”, the “Patients with TEAEs leading to lenvatinib dose modification” value worked out at 40% and the “Patients with at least 1 TEAE” value was 86.7%. In addition, in [4] (treatment phase, n = 30), the “Patients with dose reduction” value stood at 13.3%; the “Patients with lenvatinib treatment interruption” value is reported as 26.7%; the “SAE abdominal pain, patients” value is reported as 6.7%; the “SAE hypertension, patients” value is 10%. Also, in data set [4] (treatment phase, n = 30), the “TEAE diarrhea, patients” value was determined as 23.3%; the “TEAE fatigue, patients” value was found to be 26.7%; the “TEAE hypertension, patients” value came out at 23.3%; the “Treatment-related TEAE diarrhea, patients” value is given as 10.0%. Moreover, in [4] (treatment phase, n = 30), the “Treatment-related TEAE fatigue, patients” value was found to be 16.7% and the “Treatment-related TEAE hypertension, patients” value worked out at 20.0%. Moreover, the “Action on CYP3A4” value in the data set with CYP3A4 [5] is “weak inducer and time-dependent inhibitor of CYP3A4”. Besides, the “Pharmacokinetic drug–drug interactions in combination with everolimus” value in data set [6] is on record as “no significant pharmacokinetic drug–drug interactions”. Moreover, the “Effect on midazolam metabolism in physiologically based pharmacokinetic model” value at CYP3A4 [7] is reported as “negligible effects”. The “Interaction with ketoconazole (inhibitor of CYP3A4)” value in [8] was “not clinically significant”.
